According to PubChem BioAssay (NCI):
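Protocol summary: plate cells (96-well), add compound at 5 concentrations, incubate 48 h, interpolate endpoints linearly. At the GI50, growth is halved. TGI is the concentration that stops growth completely.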

Assays:
Test in all cases: NCI-60 cell line screen, 48 h
[1] = system: SK-MEL-2 melanoma
[2] = system: MDA-MB-231 breast
[3] = system: M14 melanoma
[4] = system: T-47D breast
[5] = system: SF-268 CNS
[6] = system: SK-MEL-5 melanoma
[7] = system: PC-3 prostate
[8] = system: U251 CNS
[9] = system: HCC-2998 colon
[10] = system: NCI-H23 lung
[11] = system: KM12 colon
[12] = system: BT-549 breast
[13] = system: CAKI-1 renal
[14] = system: K-562 leukemia
[15] = system: RXF 393 renal
[16] = system: HCT-15 colon
[17] = system: HOP-92 NSCLC
[18] = system: OVCAR-8 ovarian
[19] = system: SF-539 CNS
[20] = system: A549 NSCLC
[21] = system: MOLT-4 leukemia
[22] = system: LOX IMVI melanoma
[23] = system: OVCAR-5 ovarian
[24] = system: NCI/ADR-RES ovarian
[25] = system: CCRF-CEM leukemia
[26] = system: HS 578T breast
[27] = system: UACC-62 melanoma
[28] = system: EKVX NSCLC
[29] = system: UACC-257 melanoma
[30] = system: NCI-H460 lung
[31] = system: HCT-116 colon
[32] = system: OVCAR-4 ovarian
[33] = system: ACHN renal
[34] = system: SR leukemia
[35] = system: OVCAR-3 ovarian
[36] = system: HOP-62 NSCLC
[37] = system: SK-OV-3 ovarian
[38] = system: SN12C renal
[39] = system: DU-145 prostate
[40] = system: NCI-H522 lung
[41] = system: RPMI-8226 leukemia
[42] = system: MALME-3M melanoma
[43] = system: 786-0 renal
[44] = system: UO-31 renal
[45] = system: SNB-19 CNS
[46] = system: SF-295 CNS
[47] = system: MDA-MB-435
[48] = system: SK-MEL-28 melanoma
[49] = system: HT29 colon
[50] = system: SNB-75 CNS
[51] = system: A498 renal
[52] = system: SW-620 colon
[53] = system: TK-10 renal
[54] = system: COLO 205 colon
[55] = system: HL-60(TB) leukemia
[56] = system: MCF7 breast
[57] = system: NCI-H226 lung
[58] = system: IGROV1 ovarian

N#Cc1c(Br)n(C2OC(CO)C(O)C2O)c2ncnc(N)c12 (stereo unspecified)
GI50 [1]: 5.3 µM | TGI [1]: 14.1 µM | GI50 [2]: 3.82 µM | TGI [2]: > 79.9 µM | GI50 [3]: 2180 nM | TGI [3]: 17.8 µM | GI50 [4]: 498 nM | TGI [4]: 21 µM | GI50 [5]: 1500 nM | TGI [5]: 18.9 µM | GI50 [6]: 2680 nM | TGI [6]: 7 µM | GI50 [7]: 811 nM | TGI [7]: 18.6 µM | GI50 [8]: 1850 nM | TGI [8]: > 100 µM | GI50 [9]: 2150 nM | TGI [9]: 26.3 µM | GI50 [10]: 3.63 µM | TGI [10]: 41.1 µM | GI50 [11]: 1710 nM | TGI [11]: > 40.1 µM | GI50 [12]: 1580 nM | TGI [12]: 15 µM | GI50 [13]: 677 nM | TGI [13]: 2910 nM | GI50 [14]: 1070 nM | TGI [14]: > 47.4 µM | GI50 [15]: 847 nM | TGI [15]: 6.8 µM | GI50 [16]: 695 nM | TGI [16]: 46.3 µM | GI50 [17]: 738 nM | TGI [17]: 4.02 µM | GI50 [18]: 1590 nM | TGI [18]: > 100 µM | GI50 [19]: 3.91 µM | TGI [19]: 19.3 µM | GI50 [20]: 1130 nM | TGI [20]: > 27 µM | GI50 [21]: 723 nM | TGI [21]: 7.02 µM | GI50 [22]: 1130 nM | TGI [22]: 16.4 µM | GI50 [23]: 4.17 µM | TGI [23]: > 100 µM | GI50 [24]: 1430 nM | TGI [24]: 52.5 µM | GI50 [25]: 241 nM | TGI [25]: 3.87 µM | GI50 [26]: 696 nM | TGI [26]: 8.54 µM | GI50 [27]: 2640 nM | TGI [27]: 6.09 µM | GI50 [28]: 4.62 µM | TGI [28]: 74.7 µM | GI50 [29]: 4.72 µM | TGI [29]: 38.5 µM | GI50 [30]: 574 nM | TGI [30]: 4.56 µM | GI50 [31]: 685 nM | TGI [31]: > 77.7 µM | GI50 [32]: 2110 nM | TGI [32]: 71.8 µM | GI50 [33]: 1210 nM | TGI [33]: > 90.9 µM | GI50 [34]: 827 nM | TGI [34]: 4.98 µM | GI50 [35]: 1600 nM | TGI [35]: 34.1 µM | GI50 [36]: 4.09 µM | TGI [36]: > 100 µM | GI50 [37]: 4.29 µM | TGI [37]: > 45.4 µM | GI50 [38]: 2690 nM | TGI [38]: > 100 µM | GI50 [39]: 844 nM | TGI [39]: 23.9 µM | GI50 [40]: 4.62 µM | TGI [40]: 14.8 µM | GI50 [41]: 1260 nM | TGI [41]: 6.69 µM | GI50 [42]: 2530 nM | TGI [42]: 20 µM | GI50 [43]: 6.45 µM | TGI [43]: > 100 µM | GI50 [44]: 2250 nM | TGI [44]: 59.5 µM | GI50 [45]: 4.35 µM | TGI [45]: > 75.9 µM | GI50 [46]: 2070 nM | TGI [46]: 30.7 µM | GI50 [47]: 1240 nM | TGI [47]: > 46.2 µM | GI50 [48]: 2140 nM | TGI [48]: 12.7 µM | GI50 [49]: 885 nM | TGI [49]: > 36.2 µM | GI50 [50]: 3.98 µM | TGI [50]: 30.7 µM | GI50 [51]: 2640 nM | TGI [51]: 20.9 µM | GI50 [52]: 740 nM | TGI [52]: 32.7 µM | GI50 [53]: 4.02 µM | TGI [53]: 42 µM | GI50 [54]: 675 nM | TGI [54]: 3.07 µM | GI50 [55]: 608 nM | TGI [55]: 2590 nM | GI50 [56]: 631 nM | TGI [56]: 4.01 µM | GI50 [57]: 9.16 µM | TGI [57]: > 100 µM | GI50 [58]: 333 nM | TGI [58]: 1760 nM
